Like-named read-outs stand apart in the source and are kept apart here.
How the values were obtained:
NCI-H2087 cells = experiment: 3D-TGA; format: cell-based; settings: Homo sapiens, NCI-H2087, LUN, NRAS Q61K, ALK S553A
Method: (§1) Cells were seeded in 3D cultures in a black-walled, clear-bottom, non-tissue culture treated, 384-well plate (3000 cells per well) using a 1:1 mixture of BME and a custom media and grown in a humidified incubator with 5% CO2 and 5% O2, which approximates capillary levels for each gas, at 37° C. […] Cells were assessed for cell proliferation using EdU cell proliferation staining. […] Cells were permeabilized with 30 μL of filtered 0.5% Triton X-100 in PBS for 20 minutes at room temperature. Samples were washed twice gently with PBS. Cells were stained utilizing click-iT chemistry by adding 20 μL of staining cocktail containing 2 mM copper sulfate, 8 μM sulfo-Cy5-azide, and 20 mg/ml ascorbic acid in PBS and incubated 30-60 minutes at room temperature in dark. […] Plates were imaged with the Molecular Devices Pico ImageXpress. Images were segmented and percentage of cells with EdU incorporation was quantified to calculate antiproliferative effects of the drugs.
(§2) Five (5)-ethynyl-2′-deoxyuridine (EdU) data was represented as percentage EdU positive cells quantified by high content imaging from the Molecular Devices ImageXpress® Pico.

CORL23 cells = experiment: 3D-TGA; format: cell-based; settings: Homo sapiens, COR-L23, CORL23, LUN, KRAS G12V, ALK R317T
Method: as §1, §2

SW900 cells = experiment: 3D-TGA; format: cell-based; settings: Homo sapiens, SW900, LUN, KRAS G12V, ALK G103R
Method: as §1, §2

Panc 03.27 cells = experiment: 3D-TGA; format: cell-based; settings: Homo sapiens, PANC-03-27; Panc 03.27, PAN, KRAS G12V; read-out: IC50 in 3D-TGA, agent alone
Method: as §1, §2

PA-TU-8988S cells = experiment: 3D-TGA; format: cell-based; settings: Homo sapiens, PaTu 8988s, PAN, KRAS G12V, read-out: IC50 in 3D-TGA, agent alone
Method: as §1, §2

HPAF-II cells = experiment: 3D-TGA; format: cell-based, human; settings: PAN, KRAS G12D, read-out: IC50 in 3D-TGA, agent alone
Method: as §1, §2

Capan-2 cells = experiment: 3D-TGA; format: cell-based, human; settings: Capan-2, PAN, KRAS G12V, read-out: IC50 in 3D-TGA, agent alone
Method: as §1, §2

Panc 10.05 cells = experiment: 3D-TGA; format: cell-based, human; settings: Panc 10.05, PAN, KRAS G12D, read-out: IC50 in 3D-TGA, agent alone
Method: as §1, §2

Capan-1 cells = experiment: 3D-TGA; format: cell-based, human; settings: Capan-1, PAN, KRAS G12V, read-out: IC50 in 3D-TGA, agent alone
Method: as §1, §2

PANC-1 cells = experiment: 3D-TGA; format: cell-based, human; settings: PANC-1, PAN, KRAS G12D, read-out: IC50 in 3D-TGA, agent alone
Method: as §1, §2

AsPC-1 cells = experiment: 3D-TGA; format: cell-based, human; settings: Homo sapiens, ASPC1; AsPC-1, PAN, KRAS G12D; read-out: IC50 in 3D-TGA, agent alone
Method: as §1, §2

HPAC cells = experiment: 3D-TGA; format: cell-based, human; settings: PAN, KRAS G12D, read-out: IC50 in 3D-TGA, agent alone
Method: as §1, §2

PSN-1 cells = experiment: 3D-TGA; format: cell-based, human; settings: PSN-1, PAN, KRAS G12R, read-out: IC50 in 3D-TGA, agent alone
Method: as §1, §2

CFPAC-1 cells = experiment: 3D-TGA; format: cell-based, human; settings: CFPAC-1, PAN, KRAS G12V, read-out: IC50 in 3D-TGA, agent alone
Method: as §1, §2

MIA PaCa-2 cells = experiment: 3D-TGA; format: cell-based, human; settings: KRAS G12C
pancreatic cancer = settings: Phase III MPACT, 1st Line; cited from earlier work
HT-29 cells = experiment: 3D-TGA; format: cell-based, human
Method: as §1, §2

SNU-1197 cells = experiment: 3D-TGA; format: cell-based, human; settings: read-out: IC50 in 3D-TGA, agent alone
Method: as §1, §2

SW626 cells = experiment: 3D-TGA; format: cell-based, human
Method: as §1, §2

CL-40 cells = experiment: 3D-TGA; format: cell-based, human; settings: read-out: IC50 in 3D-TGA, agent alone
Method: as §1, §2

LS1034 cells = experiment: 3D-TGA; format: cell-based, human; settings: LS1034, COL, KRAS A146T, read-out: IC50 in 3D-TGA, agent alone
Method: as §1, §2

RCM-1 cells = experiment: 3D-TGA; format: cell-based, human
Method: as §1, §2

PA-TU-8988T cells = experiment: 3D-TGA; format: cell-based, human; settings: PAN, KRAS G12V, read-out: IC50 in 3D-TGA, agent alone
Method: as §1, §2

A549 cells = experiment: 3D-TGA; format: cell-based, human; settings: A549, LUN, KRAS G12S; read-out: IC50 in 3D-TGA, agent alone
Method: as §1, §2

Calu-6 cells = experiment: 3D-TGA; format: cell-based, human; settings: Calu-6, LUN, KRAS Q61K; read-out: IC50 in 3D-TGA, agent alone
Method: as §1, §2

NCI-H358 cells = experiment: 3D-TGA; format: cell-based, human; settings: NCI-H358, LUN, KRAS G12C
SK-CO-1 cells = experiment: 3D-TGA; format: cell-based; settings: Homo sapiens, read-out: IC50 in 3D-TGA Osimertinib; SK-CO-1, COL, KRAS G12V; agent alone
NCI-H1792 cells = experiment: 3D-TGA; format: cell-based, human; settings: Homo sapiens, read-out: IC50 in 3D-TGA Osimertinib; NCI-H1792, LUN, KRAS G12C; agent alone
LS411N cells = experiment: 3D-TGA; format: cell-based; settings: Homo sapiens, LS-411N, read-out: IC50 in 3D-TGA Osimertinib; LS411N, COL, BRAF V600E; agent alone
HCC827 cells = experiment: cells; format: cell-based; settings: Homo sapiens, HCC827, read-out: IC50 in 3D-TGA Osimertinib
NCI-H2172 cells = experiment: 3D-TGA; format: cell-based; settings: Homo sapiens, read-out: IC50 in 3D-TGA Osimertinib; NCI-H2172, LUN, EGFR L858R; agent alone
NCI-H820 cells = experiment: 3D-TGA; format: cell-based; settings: Homo sapiens, read-out: IC50 in 3D-TGA Osimertinib; NCI-H820, LUN, EGFR T790M; agent alone
NCI-H1650 cells = experiment: 3D-TGA; format: cell-based; settings: Homo sapiens, NCI-H1650, read-out: IC50 in 3D-TGA Osimertinib
NCI-H508 cells = experiment: 3D-TGA; format: cell-based; settings: Homo sapiens, read-out: IC50 in 3D-TGA Osimertinib; NCI-H508, COL, BRAF G596R; agent alone
NCI-H1975 cells = experiment: 3D-TGA; format: cell-based; settings: Homo sapiens, read-out: IC50 in 3D-TGA Osimertinib; NCI-H1975, LUN, EGFR L858R; agent alone
[1] = read-out: IC50 in 3D-TGA Alectinib
[2] = HT-29, COL, BRAF V600E, read-out: IC50 in 3D-TGA, agent alone
[3] = SW626, COL, KRAS G12V, read-out: IC50 in 3D-TGA, agent alone
[4] = RCM-1, COL, KRAS G12V, read-out: IC50 in 3D-TGA, agent alone
[5] = MIA-PaCa2, PAN, read-out: IC50 in 3D-TGA, agent alone
[6] = agent alone, read-out: IC50 in 3D-TGA Crizotinib

Compound `CCc1cc2c(cc1N1CCC(N3CCOCC3)CC1)C(C)(C)c1[nH]c3cc(C#N)ccc3c1C2=O` [Alectinib, alectinib] has an IC50 (NCI-H2087 cells; [1]) of 1000 nM, an IC50 (CORL23 cells; [1]) of 1000 nM and an IC50 (SW900 cells; [1]) of 1000 nM.

`O=c1[nH]cc(F)c(=O)[nH]1` [Compound 5-FU, 5-fluorouracil] showed an IC50 (Panc 03.27 cells) of 1000 nM, an IC50 (PA-TU-8988S cells) of 1000 nM and an IC50 (HPAF-II cells; Homo sapiens) of 1000 nM. The IC50 (Capan-2 cells; Homo sapiens) was 1000 nM, the IC50 (Panc 10.05 cells; Homo sapiens, Panc1005) was 1000 nM and the IC50 (Capan-1 cells; Homo sapiens) was 1000 nM. It also gave an IC50 (PANC-1 cells; Homo sapiens) of 1000 nM, an IC50 (AsPC-1 cells) of 1000 nM and an IC50 (HPAC cells; Homo sapiens) of 1000 nM. The IC50 (PSN-1 cells; Homo sapiens, PSN1) was 1000 nM, the IC50 (CFPAC-1 cells; Homo sapiens) was 1000 nM and the IC50 (MIA PaCa-2 cells; Homo sapiens, MIA PaCa-2, MIA-PaCa2, PAN, read-out: IC50 in 3D-TGA, agent alone) was 1000 nM.

In the case of `Nc1ccn([C@@H]2O[C@H](CO)[C@@H](O)C2(F)F)c(=O)n1` [Gemcitabine, gemcitabine], the ORR (pancreatic cancer) is given as 7%, the IC50 (HT-29 cells; Homo sapiens, HT-29, read-out: IC50 in 3D-TGA, agent alone) is given as under 50 nM and the IC50 (SNU-1197 cells; Homo sapiens) is given as 100 to 500 nM. The IC50 (SW626 cells; Homo sapiens, SW626, read-out: IC50 in 3D-TGA, agent alone) was 100 to 500 nM, the IC50 (CL-40 cells; Homo sapiens) was under 50 nM and the IC50 (LS1034 cells; Homo sapiens, LS-1034) was 500 to 1000 nM. For the same compound, the IC50 (RCM-1 cells; Homo sapiens, RCM-1, read-out: IC50 in 3D-TGA, agent alone) was 500 to 1000 nM.

Work on `O=C1[O][Pt]2([NH][C@@H]3CCCC[C@H]3[NH]2)[O]C1=O` [Oxaliplatin, oxaliplatin] yielded an IC50 (HT-29 cells; [2]) of 1000 nM, an IC50 (PA-TU-8988T cells) of 1000 nM and an IC50 (HPAF-II cells) of 1000 nM. For the same compound, the IC50 (A549 cells) was 1000 nM, the IC50 (SNU-1197 cells; SNU-1197, COL, KRAS G12D) was 1000 nM and the IC50 (Capan-2 cells) was 1000 nM. For the same compound, the IC50 (Panc 10.05 cells) was 1000 nM, the IC50 (Calu-6 cells) was 1000 nM and the IC50 (SW626 cells; [3]) was 1000 nM. It also gave an IC50 (Capan-1 cells) of 100 to 500 nM, an IC50 (PANC-1 cells) of 1000 nM and an IC50 (CL-40 cells; CL-40, COL, KRAS G12D) of 100 to 500 nM. The IC50 (LS1034 cells) was 1000 nM, the IC50 (RCM-1 cells; [4]) was 500 to 1000 nM and the IC50 (HPAC cells) was 1000 nM. It also gave an IC50 (PSN-1 cells) of 1000 nM, an IC50 (CFPAC-1 cells) of 1000 nM and an IC50 (MIA PaCa-2 cells; [5]) of 1000 nM. It also gave an IC50 (NCI-H358 cells; read-out: IC50 in 3D-TGA, agent alone) of 1000 nM.

`C=CC(=O)Nc1cc(Nc2nccc(-c3cn(C)c4ccccc34)n2)c(OC)cc1N(C)CCN(C)C` [Osimertinib, osimertinib] gave an IC50 (SK-CO-1 cells) of 1000 nM, an IC50 (NCI-H1792 cells) of 1000 nM and an IC50 (LS411N cells) of 1000 nM. For the same compound, the IC50 (HCC827 cells) was 50 nM, the IC50 (NCI-H2172 cells) was 1000 nM and the IC50 (NCI-H820 cells) was 1000 nM. The IC50 (NCI-H1650 cells) was 1000 nM, the IC50 (MIA PaCa-2 cells; Homo sapiens, read-out: IC50 in 3D-TGA Osimertinib, MIA PACA-2, PAN, agent alone) was 1000 nM and the IC50 (NCI-H508 cells) was 1000 nM. For the same compound, the IC50 (NCI-H358 cells; Homo sapiens, read-out: IC50 in 3D-TGA Osimertinib, agent alone) was 1000 nM and the IC50 (NCI-H1975 cells) was […].

Work on `CCc1c2c(nc3ccc(O)cc13)-c1cc3c(c(=O)n1C2)COC(=O)[C@]3(O)CC` [SN-38] yielded an IC50 (HT-29 cells; [2]) of under 50 nM, an IC50 (PA-TU-8988T cells) of under 50 nM and an IC50 (HPAF-II cells) of under 50 nM. It also gave an IC50 (SNU-1197 cells; SNU-1197, COL, KRAS G12D) of under 50 nM, an IC50 (Capan-2 cells) of under 50 nM and an IC50 (Panc 10.05 cells) of under 50 nM. It also gave an IC50 (SW626 cells; [3]) of under 50 nM, an IC50 (Capan-1 cells) of under 50 nM and an IC50 (PANC-1 cells) of under 50 nM. The IC50 (CL-40 cells; CL-40, COL, KRAS G12D) was under 50 nM, the IC50 (LS1034 cells) was under 50 nM and the IC50 (RCM-1 cells; [4]) was under 50 nM. For the same compound, the IC50 (HPAC cells) was under 50 nM, the IC50 (CFPAC-1 cells) was under 50 nM and the IC50 (MIA PaCa-2 cells; [5]) was under 50 nM.

With `C[C@@H](Oc1cc(-c2cnn(C3CCNCC3)c2)cnc1N)c1c(Cl)ccc(F)c1Cl` [Crizotinib, crizotinib] the IC50 (NCI-H2087 cells; [6]) was 1000 nM, the IC50 (CORL23 cells; [6]) was 1000 nM and the IC50 (SW900 cells; [6]) was 1000 nM.
